Laboratory results published in article PMC7451656, “In vitro and in vivo growth inhibitory activities of cryptolepine hydrate against several Babesia species and Theileria equi” (PLoS Neglected Tropical Diseases, 2020).

Columns and labels:
B. caballi = test: Growth inhibitory fluorescence assay in vitro, B. caballi; type: cell-based, Babesia caballi; conditions: for Selective index HFF: EC50 HFF / IC50 B. caballi; for Selective index MDBK: EC50 MDBK / IC50 B. caballi; for Selective index NIH/3T3: EC50 NIH/3T3 / IC50 B. caballi
Protocol: Texas strain of B. bovis and Argentina strain of B. bigemina were grown using bovine red blood cells (RBCs, collected from cattle farm of Obihiro University of Agriculture and Veterinary Medicine and stored at 4°C) in medium 199 (M199; Sigma-Aldrich, Tokyo, Japan) supplemented with 40% bovine serum, while RPMI 1640 medium (Sigma-Aldrich, Tokyo, Japan) was used for B. divergens (German strain) cultivation. The United States Department of Agriculture (USDA) strain of T. equi was grown in equine RBCs (collected from horse farm of Obihiro University of Agriculture and Veterinary Medicine and stored at 4°C) in M199 supplemented with 40% equine serum, and hypoxanthine (MP Biomedicals, Santa Ana, CA, USA) at a final concentration of 13.6 μg/ml was used as a vital supplement, while GIT medium was used for B. caballi (USDA strain) cultivation. Sixty μg/ml of streptomycin, 0.15 μg/ml of amphotericin B, and 60 U/ml of penicillin G (Sigma-Aldrich, Tokyo, Japan) were added to all media to prevent fungal and bacterial contamination. All parasite cultures were maintained for a long time in a microaerophilic stationary-phase culture system.
The inhibition assay was conducted according to the previously described protocol. Briefly, different concentrations of CRY, DA, CF, and AQ were added in triplicate in 96-well plates with 1% parasitemia and 2.5% HCT for B. bovis and B. bigemina and 5% HCT for B. divergens, B. caballi, and T. equi. The plates were incubated in a humidified incubator with 5% CO2, 5% O2, and 90% N2 for 96 h without changing the media. After 96 h, 100 μl of lysis buffer containing 2 × SG1 was directly added to each well and the plates were then wrapped in aluminum foil for protection from direct light and incubated for 6 h at room temperature. Afterward, the fluorescence was measured using a fluorescence spectrophotometer (Fluoroskan Ascent, Thermo Fisher Scientific, USA) at 485 nm excitation and 518 nm emission wavelengths. The relative fluorescence value was set to percentages after subtracting the mean values of the negative control. The experiment was repeated thrice.
The IC50 values of CRY, DA, CF, and AQ were determined using the nonlinear regression curve fit in GraphPad Prism (GraphPad Software Inc., San Diego, CA, USA). Combination index (CI) values for the drug combination were calculated using CompuSyn software, and the degree of synergism was determined as the weighted average of CI values using a formula [(1 x IC50) + (2 x IC75) + (3 x IC90) + (4 x IC95)]/10 [30]. The differences in parasitemia and hematology profiles in the B. microti–infected mice were analyzed using an independent Student’s t-test and one-way ANOVA test using GraphPad Prism version 5.0 for Windows (GraphPad Software Inc., San Diego, CA, USA). A P-value < 0.05 was considered statistically significant.

[1] = test system: bovine RBCs / B. divergens; test: Growth of B. divergens with CRY-treated bovine RBCs; type: cell-based, Babesia divergens; conditions: bovine RBCs pre-incubated with 1 and 10 μM CRY for 3 and 6 h, 4 days
Protocol: (§1) To investigate the hemolytic effect of CRY on host (bovine or equine) RBCs, bovine and equine RBCs were incubated with 1 and 10 μM of CRY for 3 and 6 h. The RBCs were washed thrice with phosphate-buffered saline (PBS) and mixed with B. divergens and B. caballi infected RBCs (iRBCs, recovered from −80 °C stock at our laboratory) harvested with a parasitemia of 8% and 3%, respectively and adjusted to 1% parasitemia with fresh RBCs. In a 24-well plate, 100 μl of iRBCs was added to 900 μl of complete medium and the parasite growth was monitored daily by microscopic examination of a Giemsa-stained blood smear for 4 days.

P. berghei = test system: P. berghei; design: method as in PMID 11543688; conditions: no apparent toxicity; cited from earlier work
equine RBCs / B. caballi = test: Growth of B. caballi with CRY-treated horse RBCs; type: cell-based, Babesia caballi; conditions: equine RBCs pre-incubated with 1 and 10 μM CRY for 3 and 6 h, 4 days
Protocol: as §1

[2] = Hematology profiles, body weight and adverse effects of treated B. microti-infected mice; type: in vivo; conditions: CRY administered i.p.
Protocol: The promising effect of CRY in vitro encouraged us to evaluate its in vivo effects against B. microti in mice. The assay was conducted in accordance with the previously described protocol. In two separate trials, 35 female 8-week-old BALB/c mice, housed under a pathogen-free environment with controlled humidity, temperature (22°C) and a 12 h light/ dark cycle were caged in seven groups, each group consisting of five mice. Six groups were i.p. injected with 0.5 ml of inoculum (1×10^7 B. microti iRBCs), while the seventh group was left uninfected and untreated to act as a negative control. When the average parasitemia in all infected mice reached approximately 1%, the 5-day drug treatment was initiated. […] Parasitemia and hematology profiles (RBCs, hemoglobin (HGB), and HCT) were monitored every 2 and 4 days by microscopic examination and hematology analyzer (Celltac α MEK-6450, Nihon Kohden Corporation, Tokyo, Japan), respectively. […]
The IC50 values of CRY, DA, CF, and AQ were determined using the nonlinear regression curve fit in GraphPad Prism (GraphPad Software Inc., San Diego, CA, USA). Combination index (CI) values for the drug combination were calculated using CompuSyn software, and the degree of synergism was determined as the weighted average of CI values using a formula [(1 x IC50) + (2 x IC75) + (3 x IC90) + (4 x IC95)]/10 [30]. […]

SMILES	Selective index HFF (B. caballi)	Selective index MDBK (B. caballi)	Selective index NIH/3T3 (B. caballi)	multiplication of B. divergens, CRY-treated RBCs versus normal RBCs [1]	suppression of P. berghei parasitemia in mice (P. berghei) [%]	concentration at which in vitro growth was significantly inhibited (B. caballi; B. caballi, t-test P = 0.001) [µM]	IC50 (B. caballi; Babesia caballi, B. caballi in vitro culture, fluorescence assay, 96 h) [nM]	multiplication of B. caballi, CRY-treated RBCs versus normal RBCs (equine RBCs / B. caballi)	adverse effects in mice [2]
O=C1C(O)=C([C@H]2CC[C@H](c3ccc(Cl)cc3)CC2)C(=O)c2ccccc21 [AQ, atovaquone]	˃ 980.4	˃ 980.4	˃ 980.4	–	–	–	–	–	–
Cn1c2c3ccccc3nc-2cc2ccccc21 [CRY, Cryptolepine hydrate]	˃ 166.7	144.45	158.82	did not significantly differ	80.5	0.03	600 ± 0.53	did not significantly differ	no apparent adverse effects
